Experimental data: PubChem BioAssay AID2060505 (Molecular Pharmacology Branch, DTP, NCI, 2025)

Test system: 633275-114-R-J1-PDC complex spheroids, viability
Test: Anticancer human tumor 633275-114-R-J1-PDC patient-derived endometrial adenocarcinoma cell line growth inhibition [GQUAD]
Settings: for IC50: curve of first compound; for viability, T/C: stronger effect = lower value
Method in brief: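 Viability of tumor cells grown as complex spheroids with endothelial and stromal cells, exposed to drug combinations. Top concentration at or near clinical Cmax (else 10 microM), diluted in half-log increments.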

[1] = second compound 0.0316 µM, first compound 0.0316 µM
[2] = second compound 0.0316 µM, first compound 0.1 µM
[3] = second compound 0.0316 µM, first compound 0.316 µM
[4] = second compound 0.0316 µM, first compound 1 µM
[5] = second compound 0.0316 µM, first compound 3.16 µM
[6] = second compound 0.0316 µM, first compound 10 µM
[7] = second compound 0.1 µM, first compound 0.0316 µM
[8] = second compound 0.1 µM, first compound 0.1 µM
[9] = second compound 0.1 µM, first compound 0.316 µM
[10] = second compound 0.1 µM, first compound 1 µM
[11] = second compound 0.1 µM, first compound 3.16 µM
[12] = second compound 0.1 µM, first compound 10 µM
[13] = second compound 0.316 µM, first compound 0.0316 µM
[14] = second compound 0.316 µM, first compound 0.1 µM
[15] = second compound 0.316 µM, first compound 0.316 µM
[16] = second compound 0.316 µM, first compound 1 µM
[17] = second compound 0.316 µM, first compound 3.16 µM
[18] = second compound 0.316 µM, first compound 10 µM
[19] = second compound 1 µM, first compound 0.0316 µM
[20] = second compound 1 µM, first compound 0.1 µM
[21] = second compound 1 µM, first compound 0.316 µM
[22] = second compound 1 µM, first compound 1 µM
[23] = second compound 1 µM, first compound 3.16 µM
[24] = second compound 1 µM, first compound 10 µM
[25] = second compound 3.16 µM, first compound 0.0316 µM
[26] = second compound 3.16 µM, first compound 0.1 µM
[27] = second compound 3.16 µM, first compound 0.316 µM
[28] = second compound 3.16 µM, first compound 1 µM
[29] = second compound 3.16 µM, first compound 3.16 µM
[30] = second compound 3.16 µM, first compound 10 µM
[31] = second compound 10 µM, first compound 0.0316 µM
[32] = second compound 10 µM, first compound 0.1 µM
[33] = second compound 10 µM, first compound 0.316 µM
[34] = second compound 10 µM, first compound 1 µM
[35] = second compound 10 µM, first compound 3.16 µM
[36] = second compound 10 µM, first compound 10 µM
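Also: spheroids exposed to the agents for seven days.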
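For viability, T/C in this document: percent of DMSO vehicle control viability which is 100%.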

Cc1cccc(N(C)C(=O)C2C(O)CCN2c2nc(C)cc(C(F)(F)F)c2C#N)c1 (stereo unspecified) + Cc1cnc(CNC(=O)c2c(=O)c3ccc(N4CCCN(C)CC4)nc3n3c2sc2ccccc23)cn1
IC50 (second compound 0.0316 µM): > 10000 nM | IC50 (second compound 0.1 µM): 814 nM | IC50 (second compound 0.316 µM): < 31.6 nM | IC50 (second compound 1 µM): < 31.6 nM | IC50 (second compound 3.16 µM): < 31.6 nM | IC50 (second compound 10 µM): < 31.6 nM | viability, T/C [1]: 66.2% | viability, T/C [2]: 64.1% | viability, T/C [3]: 59.2% | viability, T/C [4]: 65% | viability, T/C [5]: 60.5% | viability, T/C [6]: 67.8% | viability, T/C [7]: 55.1% | viability, T/C [8]: 52% | viability, T/C [9]: 53.7% | viability, T/C [10]: 48.3% | viability, T/C [11]: 47.5% | viability, T/C [12]: 46.8% | viability, T/C [13]: 40% | viability, T/C [14]: 41.5% | viability, T/C [15]: 46% | viability, T/C [16]: 50.9% | viability, T/C [17]: 43.4% | viability, T/C [18]: 44.5% | viability, T/C [19]: 41.2% | viability, T/C [20]: 42.1% | viability, T/C [21]: 41.4% | viability, T/C [22]: 39.9% | viability, T/C [23]: 37.3% | viability, T/C [24]: 37.7% | viability, T/C [25]: 36.3% | viability, T/C [26]: 35% | viability, T/C [27]: 32.1% | viability, T/C [28]: 33.5% | viability, T/C [29]: 37.2% | viability, T/C [30]: 35% | viability, T/C [31]: 27.2% | viability, T/C [32]: 33.9% | viability, T/C [33]: 27.9% | viability, T/C [34]: 31.4% | viability, T/C [35]: 34.2% | viability, T/C [36]: 24.2%

Cn1ncnc1[C@H]1c2n[nH]c(=O)c3cc(F)cc(c23)N[C@@H]1c1ccc(F)cc1 + Cc1cnc(CNC(=O)c2c(=O)c3ccc(N4CCCN(C)CC4)nc3n3c2sc2ccccc23)cn1
IC50 (second compound 0.0316 µM): 114 nM | IC50 (second compound 0.1 µM): < 0.999 nM | IC50 (second compound 0.316 µM): < 0.999 nM | IC50 (second compound 1 µM): < 0.999 nM | IC50 (second compound 3.16 µM): < 0.999 nM | IC50 (second compound 10 µM): < 0.999 nM | viability, T/C (second compound 0.0316 µM, first compound 0.000999 µM): 64% | viability, T/C (second compound 0.0316 µM, first compound 0.00316 µM): 63.3% | viability, T/C (second compound 0.0316 µM, first compound 0.00999 µM): 63.2% | viability, T/C [1]: 58.9% | viability, T/C (second compound 0.0316 µM, first compound 0.0999 µM): 46.5% | viability, T/C [3]: 44.3% | viability, T/C (second compound 0.1 µM, first compound 0.000999 µM): 47.9% | viability, T/C (second compound 0.1 µM, first compound 0.00316 µM): 51.3% | viability, T/C (second compound 0.1 µM, first compound 0.00999 µM): 50.2% | viability, T/C [7]: 42.2% | viability, T/C (second compound 0.1 µM, first compound 0.0999 µM): 39.3% | viability, T/C [9]: 38.2% | viability, T/C (second compound 0.316 µM, first compound 0.000999 µM): 41.9% | viability, T/C (second compound 0.316 µM, first compound 0.00316 µM): 43.7% | viability, T/C (second compound 0.316 µM, first compound 0.00999 µM): 43.2% | viability, T/C [13]: 37.7% | viability, T/C (second compound 0.316 µM, first compound 0.0999 µM): 37.6% | viability, T/C [15]: 34.8% | viability, T/C (second compound 1 µM, first compound 0.000999 µM): 39.1% | viability, T/C (second compound 1 µM, first compound 0.00316 µM): 37.4% | viability, T/C (second compound 1 µM, first compound 0.00999 µM): 37.9% | viability, T/C [19]: 35% | viability, T/C (second compound 1 µM, first compound 0.0999 µM): 34% | viability, T/C [21]: 34% | viability, T/C (second compound 3.16 µM, first compound 0.000999 µM): 31.8% | viability, T/C (second compound 3.16 µM, first compound 0.00316 µM): 38.6% | viability, T/C (second compound 3.16 µM, first compound 0.00999 µM): 36.6% | viability, T/C [25]: 36.7% | viability, T/C (second compound 3.16 µM, first compound 0.0999 µM): 29.4% | viability, T/C [27]: 29.8% | viability, T/C (second compound 10 µM, first compound 0.000999 µM): 32.8% | viability, T/C (second compound 10 µM, first compound 0.00316 µM): 31% | viability, T/C (second compound 10 µM, first compound 0.00999 µM): 28.4% | viability, T/C [31]: 30.9% | viability, T/C (second compound 10 µM, first compound 0.0999 µM): 28.9% | viability, T/C [33]: 26.6%

O=C(c1cc(Cc2n[nH]c(=O)c3ccccc23)ccc1F)N1CCN(C(=O)C2CC2)CC1 + Cc1cnc(CNC(=O)c2c(=O)c3ccc(N4CCCN(C)CC4)nc3n3c2sc2ccccc23)cn1
IC50 (second compound 0.0316 µM): 9930 nM | IC50 (second compound 0.1 µM): 43.6 nM | IC50 (second compound 0.316 µM): < 31.6 nM | IC50 (second compound 1 µM): < 31.6 nM | IC50 (second compound 3.16 µM): < 31.6 nM | IC50 (second compound 10 µM): < 31.6 nM | viability, T/C [1]: 63% | viability, T/C [2]: 60.9% | viability, T/C [3]: 71.4% | viability, T/C [4]: 58.2% | viability, T/C [5]: 57.2% | viability, T/C [6]: 50.3% | viability, T/C [7]: 49.5% | viability, T/C [8]: 47.9% | viability, T/C [9]: 49.1% | viability, T/C [10]: 48.9% | viability, T/C [11]: 41.9% | viability, T/C [12]: 42.8% | viability, T/C [13]: 46.6% | viability, T/C [14]: 42.7% | viability, T/C [15]: 43.7% | viability, T/C [16]: 38.9% | viability, T/C [17]: 44% | viability, T/C [18]: 33.7% | viability, T/C [19]: 37.7% | viability, T/C [20]: 35.3% | viability, T/C [21]: 45.3% | viability, T/C [22]: 42.6% | viability, T/C [23]: 37% | viability, T/C [24]: 35.1% | viability, T/C [25]: 37.8% | viability, T/C [26]: 38.9% | viability, T/C [27]: 42.2% | viability, T/C [28]: 30.9% | viability, T/C [29]: 34.3% | viability, T/C [30]: 31% | viability, T/C [31]: 33.4% | viability, T/C [32]: 31.2% | viability, T/C [33]: 28.5% | viability, T/C [34]: 30.9% | viability, T/C [35]: 33.7% | viability, T/C [36]: 29.8%
